Reference: patent publication US9624206B2, “Antibacterial 1H-indazole and 1H-indole derivatives” (priority 2013, dated 2017)
≈ marks a conversion by molar mass, not a printed value.

Tests used:
Test in all cases: Bacterial growth minimal inhibitory concentration (microdilution, CLSI M7-A7)
Type in all cases: cell-based
[1] = system: P. aeruginosa ATCC27853; settings: Pseudomonas aeruginosa, ATCC27853; quinolone-sensitive strain; cation-adjusted Mueller-Hinton Broth
Method: (§1) Minimal Inhibitory Concentrations (MICs; mg/L) were determined in cation-adjusted Mueller-Hinton Broth by a microdilution method following the description given in “Methods for Dilution Antimicrobial Susceptibility Tests for Bacteria that Grow Aerobically”, Approved standard, 7th ed., Clinical and Laboratory Standards Institute (CLSI) Document M7-A7, Wayne, Pa., USA (2006).
(§2) All Example compounds were tested against several Gram-positive and Gram-negative bacteria. […] K. pneumoniae A-651 and Acinetobacter baumannii T6474 are multiply-resistant strains (in particular quinolone-resistant), while E. coli ATCC25922 and P. aeruginosa ATCC27853 are quinolone-sensitive strains.

[2] = system: E. coli ATCC25922; settings: Escherichia coli, ATCC25922; quinolone-sensitive strain; cation-adjusted Mueller-Hinton Broth
Method: as §1, §2

[3] = system: Acinetobacter baumannii T6474; settings: Acinetobacter baumannii, T6474; multiply-resistant strain (in particular quinolone-resistant); cation-adjusted Mueller-Hinton Broth
Method: as §1, §2

[4] = system: K. pneumoniae A-651; settings: Klebsiella pneumoniae, A651; multiply-resistant strain (in particular quinolone-resistant); cation-adjusted Mueller-Hinton Broth
Method: as §1, §2

Structure (SMILES)	MIC [1] [µg/mL]	MIC [2] [µg/mL]	MIC [3] [µg/mL]	MIC [4] [µg/mL]
CC#CCOc1ccc2c(ccn2CCC(C)(C(=O)NO)S(C)(=O)=O)c1 (racemic) [RE1, (RS)-4-(5-(but-2-yn-1-yloxy)-1H-indol-1-yl)-N-hydroxy-2-methyl-2-(methylsulfonyl)butanamide]	16 (≈ 42.3 µM)	8 (≈ 21.1 µM)	16 (≈ 42.3 µM)	16 (≈ 42.3 µM)
COc1cccc(-c2ccc3c(cnn3CCC(C)(C(=O)NO)S(C)(=O)=O)c2)c1F (racemic) [RE2, (RS)-4-(5-(2-fluoro-3-methoxyphenyl)-1H-indazol-1-yl)-N-hydroxy-2-methyl-2-(methylsulfonyl)butanamide]	16 (≈ 36.7 µM)	8 (≈ 18.4 µM)	32 (≈ 73.5 µM)	16 (≈ 36.7 µM)
CC(CCn1ncc2cc(/C=C/c3ccccc3)ccc21)(C(=O)NO)S(C)(=O)=O (racemic) [RE3, (RS)-(E)-N-hydroxy-2-methyl-2-(methylsulfonyl)-4-(5-styryl-1H-indazol-1-yl)butanamide]	16 (≈ 38.7 µM)	0.25 (≈ 0.605 µM)	0.25 (≈ 0.605 µM)	1 (≈ 2.42 µM)
CC(CCn1ncc2cc(CCc3ccccc3)ccc21)(C(=O)NO)S(C)(=O)=O (racemic) [RE4, (RS)—N-hydroxy-2-methyl-2-(methylsulfonyl)-4-(5-phenethyl-1H-indazol-1-yl)butanamide]	8 (≈ 19.3 µM)	2 (≈ 4.81 µM)	8 (≈ 19.3 µM)	0.5 (≈ 1.2 µM)
CC(CCn1ncc2cc(C#Cc3ccc(CN4CCOCC4)cc3)ccc21)(C(=O)NO)S(C)(=O)=O.Cc1ccc(S(=O)(=O)O)cc1 (racemic) [RE5, (RS)—N-hydroxy-2-methyl-2-(methylsulfonyl)-4-(5-((4-(morpholinomethyl)phenyl)ethynyl)-1H-indazol-1-yl)butanamide 4-toluenesulfonic acid salt]	16	0.5	32	0.5
CC(CCn1ncc2cc(C#Cc3ccc(N)cc3)ccc21)(C(=O)NO)S(C)(=O)=O (racemic) [RE6, (RS)-4-(5-((4-aminophenyl)ethynyl)-1H-indazol-1-yl)-N-hydroxy-2-methyl-2-(methylsulfonyl)butanamide]	8 (≈ 18.8 µM)	0.25 (≈ 0.586 µM)	1 (≈ 2.34 µM)	0.5 (≈ 1.17 µM)
CC(CCn1ncc2cc(-c3ccc(OC(F)(F)F)cc3)ccc21)(C(=O)NO)S(C)(=O)=O (racemic) [RE7, (RS)—N-hydroxy-2-methyl-2-(methylsulfonyl)-4-(5-(4-(trifluoromethoxy)phenyl)-1H-indazol-1-yl)butanamide]	8 (≈ 17 µM)	4 (≈ 8.48 µM)	8 (≈ 17 µM)	1 (≈ 2.12 µM)
CC(CCn1ccc2cc(-c3ccc(-n4nccn4)cc3)ccc21)(C(=O)NO)S(C)(=O)=O.O=CO (racemic) [RE8, (RS)-4-(5-(4-(2H-1,2,3-triazol-2-yl)phenyl)-1H-indol-1-yl)-N-hydroxy-2-methyl-2-(methylsulfonyl)butanamide formate]	8	0.25	0.5	≤ 0.063
CC(CCn1ccc2cc(-c3ccc(OC(F)(F)F)cc3)ccc21)(C(=O)NO)S(C)(=O)=O (racemic) [RE9, (RS)—N-hydroxy-2-methyl-2-(methylsulfonyl)-4-(5-(4-(trifluoromethoxy)phenyl)-1H-indol-1-yl)butanamide]	8 (≈ 17 µM)	4 (≈ 8.5 µM)	2 (≈ 4.25 µM)	2 (≈ 4.25 µM)
CSc1ccc(-c2ccc3c(ccn3CCC(C)(C(=O)NO)S(C)(=O)=O)c2)c(F)c1 (racemic) [RE10, (RS)-4-(5-(2-fluoro-4-(methylthio)phenyl)-1H-indol-1-yl)-N-hydroxy-2-methyl-2-(methylsulfonyl)butanamide]	8 (≈ 17.8 µM)	2 (≈ 4.44 µM)	4 (≈ 8.88 µM)	0.5 (≈ 1.11 µM)
COc1ccc(-c2cc3ccn(CCC(C)(C(=O)NO)S(C)(=O)=O)c3cc2F)c(F)c1 (racemic) [RE11, (RS)-4-(6-fluoro-5-(2-fluoro-4-methoxyphenyl)-1H-indol-1-yl)-N-hydroxy-2-methyl-2-(methylsulfonyl)butanamide]	8 (≈ 17.7 µM)	1 (≈ 2.21 µM)	4 (≈ 8.84 µM)	2 (≈ 4.42 µM)
COc1ccc(-c2ccc3c(ccn3CCC(C)(C(=O)NO)S(C)(=O)=O)c2F)c(F)c1 (racemic) [RE12, (RS)-4-(4-fluoro-5-(2-fluoro-4-methoxyphenyl)-1H-indol-1-yl)-N-hydroxy-2-methyl-2-(methylsulfonyl)butanamide]	2 (≈ 4.42 µM)	2 (≈ 4.42 µM)	2 (≈ 4.42 µM)	4 (≈ 8.84 µM)
CC(CCn1ccc2c(F)c(C#Cc3ccc(C4(O)COC4)cc3)ccc21)(C(=O)NO)S(C)(=O)=O (racemic) [RE13, (RS)-4-(4-fluoro-5-((4-(3-hydroxyoxetan-3-yl)phenyl)ethynyl)-1H-indol-1-yl)-N-hydroxy-2-methyl-2-(methylsulfonyl)butanamide]	2 (≈ 4 µM)	0.25 (≈ 0.499 µM)	4 (≈ 7.99 µM)	0.5 (≈ 0.999 µM)
C[C@@](CCn1ccc2cc(C#CC#C[C@@H]3C[C@H]3CO)c(F)cc21)(C(=O)NO)S(C)(=O)=O (relative stereo) [Example 41, (R)-4-(6-fluoro-5-(((1R*,2R*)-2-(hydroxymethyl)cyclopropyl)buta-1,3-diyn-1-yl)-1H-indol-1-yl)-N-hydroxy-2-methyl-2-(methylsulfonyl)butanamide]	1 (≈ 2.24 µM)	0.125 (≈ 0.28 µM)	16 (≈ 35.8 µM)	0.125 (≈ 0.28 µM)
COc1ccc(-c2ccc3c(ccn3CC[C@](C)(C(=O)NO)S(C)(=O)=O)c2)c(F)c1 (single isomer, unassigned) [Example 2]	2 (≈ 4.6 µM)	0.125 (≈ 0.288 µM)	8 (≈ 18.4 µM)	2 (≈ 4.6 µM)
C[C@@](CCn1ccc2cc(C#Cc3ccc(C4(O)COC4)cc3)c(F)cc21)(C(=O)NO)S(C)(=O)=O (single isomer, unassigned) [Example 15]	1 (≈ 2 µM)	0.5 (≈ 0.999 µM)	0.25 (≈ 0.499 µM)	0.5 (≈ 0.999 µM)
CSc1ccc(-c2ccc3c(cnn3CC[C@](C)(C(=O)NO)S(C)(=O)=O)c2)c(F)c1 [Example 1, (R)-4-(5-(2-fluoro-4-(methylthio)phenyl)-1H-indazol-1-yl)-N-hydroxy-2-methyl-2-(methylsulfonyl)butanamide]	4 (≈ 8.86 µM)	≤ 0.063	16 (≈ 35.4 µM)	0.25 (≈ 0.554 µM)
COc1ccc(-c2ccc3c(cnn3CC[C@](C)(C(=O)NO)S(C)(=O)=O)c2)c(F)c1 [Example 3, (R)-4-(5-(2-fluoro-4-methoxyphenyl)-1H-indazol-1-yl)-N-hydroxy-2-methyl-2-(methylsulfonyl)butanamide]	1 (≈ 2.3 µM)	0.25 (≈ 0.574 µM)	1 (≈ 2.3 µM)	1 (≈ 2.3 µM)
C[C@@](CCn1ncc2cc(C#Cc3ccc(CO)cc3)ccc21)(C(=O)NO)S(C)(=O)=O [Example 4, (R)—N-hydroxy-4-(5-((4-(hydroxymethyl)phenyl)ethynyl)-1H-indazol-1-yl)-2-methyl-2-(methylsulfonyl)butanamide]	2 (≈ 4.53 µM)	0.125 (≈ 0.283 µM)	0.125 (≈ 0.283 µM)	≤ 0.063
C[C@@](CCn1ncc2cc(C#CC#CC3(O)COC3)ccc21)(C(=O)NO)S(C)(=O)=O [Example 5, (R)—N-hydroxy-4-(5-((3-hydroxyoxetan-3-yl)buta-1,3-diyn-1-yl)-1H-indazol-1-yl)-2-methyl-2-(methylsulfonyl)butanamide]	2 (≈ 4.64 µM)	1 (≈ 2.32 µM)	> 32	1 (≈ 2.32 µM)
C[C@@](CCn1ncc2cc(-c3ccc(-n4nccn4)cc3)ccc21)(C(=O)NO)S(C)(=O)=O [Example 6, (R)-4-(5-(4-(2H-1,2,3-triazol-2-yl)phenyl)-1H-indazol-1-yl)-N-hydroxy-2-methyl-2-(methylsulfonyl)butanamide]	2 (≈ 4.4 µM)	≤ 0.063	0.125 (≈ 0.275 µM)	0.125 (≈ 0.275 µM)
CC(C)(O)C#CC#Cc1ccc2c(cnn2CC[C@](C)(C(=O)NO)S(C)(=O)=O)c1 [Example 7, (R)—N-hydroxy-4-(5-(5-hydroxy-5-methylhexa-1,3-diyn-1-yl)-1H-indazol-1-yl)-2-methyl-2-(methylsulfonyl)butanamide]	2 (≈ 4.79 µM)	0.5 (≈ 1.2 µM)	32 (≈ 76.6 µM)	1 (≈ 2.4 µM)
CC(C)(O)c1ccc(C#Cc2ccc3c(cnn3CC[C@](C)(C(=O)NO)S(C)(=O)=O)c2)cc1 [Example 8, (R)—N-hydroxy-4-(5-((4-(2-hydroxypropan-2-yl)phenyl)ethynyl)-1H-indazol-1-yl)-2-methyl-2-(methylsulfonyl)butanamide]	2 (≈ 4.26 µM)	0.125 (≈ 0.266 µM)	0.25 (≈ 0.532 µM)	0.25 (≈ 0.532 µM)
C[C@@](CCn1ccc2cc(C#Cc3ccc(CO)cc3)ccc21)(C(=O)NO)S(C)(=O)=O [Example 9, (R)—N-hydroxy-4-(5-((4-(hydroxymethyl)phenyl)ethynyl)-1H-indol-1-yl)-2-methyl-2-(methylsulfonyl)butanamide]	1 (≈ 2.27 µM)	≤ 0.063	0.125 (≈ 0.284 µM)	0.125 (≈ 0.284 µM)
C[C@@](CCn1ccc2cc(C#Cc3ccc(C4(O)COC4)cc3)ccc21)(C(=O)NO)S(C)(=O)=O [Example 10, (R)—N-hydroxy-4-(5-((4-(3-hydroxyoxetan-3-yl)phenyl)ethynyl)-1H-indol-1-yl)-2-methyl-2-(methylsulfonyl)butanamide]	1 (≈ 2.07 µM)	0.125 (≈ 0.259 µM)	0.125 (≈ 0.259 µM)	0.25 (≈ 0.518 µM)
